Results on 2 compounds are retold here after US20160168140A1, “HETEROCYCLIC COMPOUNDS AS ANTIBIOTIC POTENTIATORS” (priority 2014, published 2016).

The IC50 is the concentration needed to halve the response being measured. As usually defined, the EC50 is the midpoint of the concentration-response curve.

The target in one test is T1, E. coli RecA (Escherichia coli, UniProt P0A7G6).
T1 construct: purchased New England BioLabs
As to the kind of experiment: RecA ssDNA-dependent ATPase assay (coupled enzyme, amplex red fluorescence). The format is biochemical. The conditions noted are these: read-out: RecA Inhibition IC50. As to the method:
A coupled enzyme ATPase assay, similar to that described in Wigle and Singleton, BioorgMed Chem Lett. 17(12):3249-53 (2007), was used to screen compounds for in vitro activity against RecA. A solution of the compound to be tested dissolved in DMSO (5 μL of 20× concentrated stock) was added to 90 μL of a master mix containing the following components at their final concentrations in the appropriate wells of flat-bottomed black 96-well plates (Corning Life Sciences, Corning N.Y.) at 37° C.: 0.5 μM E. coli RecA (New England BioLabs), 10 mM Mg(OAc)2 (Sigma, St. Louis, Mo.), 500 μM ATP (Sigma), 250 μM phosphoenolpyruvate (Sigma), 100 μM amplex red (Invitrogen, Carlsbad, Calif.), 1 U/mL pyruvate kinase (Sigma), 1 U/mL pyruvate oxidase (Thermo Fisher Scientific, Waltham, Mass.), 1 U/mL horseradish peroxidase (Sigma), and 20 mM Tris*HOAc, pH 7.5 (Boston BioProducts, Ashland, Mass.). The total volume of the assay solution was 100 μL. […]
The fluorescence emission at 595 nm (excitation at 485 nm) was then recorded using a microplate reader (PolarStar Optima, BMG Labtech, Ortenberg, Germany) for approximately 25 min to establish the baseline fluorescence.
To initiate the reactions, poly(dT) (5 μL of a 100 μM-nts stock solution) was added to each well to give a final DNA concentration of 5 μM-nts. Fluorescence emission was recorded for an additional 90 min. […]

Another test deals with E. coli. Nature of the test: MIC shift assay of antibiotics (broth microdilution). The format is cell-based. The conditions noted are these: E. coli (SCR1); compound concentration 10 μM; MIC of colistin alone 0.5-1.0 μg/mL. In outline: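 Test compound held at 4 or 10 μM final while antibiotic MIC is determined by microdilution in cation-adjusted Mueller Hinton broth, inoculum OD600 0.005. Growth read as OD600 after 18-20 h shaking at 37 °C; MIC with compound compared against antibiotic alone.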
For orientation: In broth dilution the organism is exposed to a series of concentrations in liquid medium.

The subject of test [1] is Acinetobacter baumannii (Ab23). The description is as above. It counts as cell-based. The note with it: Acinetobacter baumannii (Ab23); compound concentration 10 μM; MIC of colistin alone >8.0 μg/mL. In outline: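 Following a modified Wiegand broth microdilution protocol, colistin serial dilutions with or without test compound were set up in round-bottom 96-well plates and inoculated with A. baumannii cells to a starting OD600 of 0.005. Plates were shaken at 37° C. for 18 to 20 h and read at OD600. The fold shift was calculated from colistin MIC alone versus colistin MIC with test compound, with growth and medium-only blank controls.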

The test system of test [2] is SOS response (sulAp-lacZ reporter) in E. coli strain DM4000. As to the kind of experiment: Ciprofloxacin-induced SOS reporter gene expression assay (sulAp-lacZ, Beta-Glo luminescence, with or without PMBN). The format is cell-based. The conditions noted are these: Escherichia coli; in the presence of PMBN (4 μg/mL); read-out: SOS Attenuation EC50. The source says: An SOS reporter gene assay was used to assess the ability of the RecA inhibitor compounds to block the SOS response to ciprofloxacin. Details of the testing methodology are provided in, for example, Sandler et al., Genetics 143(1):5-13 (1996) and McCool et al., Mol Microbiol. 53(5):1343-57 (2004). The SOS genes are regulated by the transcriptional repressor LexA and the DNA-binding protein RecA. When DNA damage occurs, RecA binds to ssDNA, and this protein-DNA complex then induces the autocleavage of LexA, resulting in the depression of LexA-bound promoters. […] Therefore, a reporter construct wherein the sulA promoter (sulAp) is fused to the lacZ gene can be used to measure the level of the SOS response in cells using an assay for β-galactosidase activity.
E. coli strain DM4000 contains the sulAp-lacZ reporter gene inserted at the X attachment site. Two additional strains containing the same sulAp-lacZ reporter gene were used as RecA-independent controls in this assay. JC19098 encodes an un-cleaveable LexA repressor; therefore, the sulA promoter-dependent β-galactosidase expression is always off. […]
Luminescence was measured on a plate reader with the gain adjustment set to 40% of the maximum on a well with one of the highest luminescence values on the plate (e.g., a well containing ciprofloxacin without inhibitor). […]
In general terms: A reporter such as luciferase makes a cellular process visible.

T1 sequence (P0A7G6 2-353): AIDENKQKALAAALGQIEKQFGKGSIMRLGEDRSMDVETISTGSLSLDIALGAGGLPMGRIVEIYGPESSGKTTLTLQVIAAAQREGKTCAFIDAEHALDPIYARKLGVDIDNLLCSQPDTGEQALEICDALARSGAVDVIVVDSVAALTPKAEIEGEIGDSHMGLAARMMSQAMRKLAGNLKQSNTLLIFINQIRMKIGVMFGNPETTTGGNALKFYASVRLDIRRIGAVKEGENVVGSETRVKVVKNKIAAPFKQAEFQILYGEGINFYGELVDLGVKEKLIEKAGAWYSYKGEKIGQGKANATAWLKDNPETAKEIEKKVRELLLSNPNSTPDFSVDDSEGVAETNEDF

For `Clc1ccc(/C=C/c2c[nH]c3ccc(Br)cc23)cc1Cl` [MLJ-02-086B], the IC50 at E. coli RecA came out at 15 µM. Also, the “Colistin MIC Shift” value in the test with E. coli is recorded as 8-16X; in test [1] it was above 64X. Moreover, in test [2], the 50% effective concentration (EC50) amounted to 8 µM.
On the same counts, the results for `CN(C)CCCNc1nc(/C=C/c2ccc(Cl)c(Cl)c2)nc2c(C(F)(F)F)cccc12` [MLJ-02-070A] are 12 µM, 16-32X, above 128X and below 6 µM.
